Results taken from patent publication US20080220056A1, “Treatment for liver disease” (UNIVERSITY OF SOUTHAMPTON, priority 2002, published 2008).

Columns and labels:
caspase 3 activity = experiment: Caspase 3 activity, sulfasalazine-treated hepatic stellate cells; format: cell-based; conditions: 0.5, 1 or 2 mM
Procedure: (§1) Treatment of activated hepatic stellate cells with Sulfasalazine (at a concentration of 0.5, 1 or 2 mM) for 24 hours induced a dose-dependent increase in apoptosis visualised by both Acridine Orange staining (30%, 45% and 55% respectively).

[1] = system: activated hepatic stellate cells; experiment: Apoptosis of activated hepatic stellate cells by acridine orange, sulfasalazine; format: cell-based; conditions: 24 hours
Procedure: as §1

[2] = system: NFκB DNA binding activity; experiment: Electromobility shift assay, sulfasalazine-treated hepatic stellate cells; format: cell-based; conditions: day 7 HSC; 0.5, 1 and 2 mM for 24 hours
[3] = system: NFκB responsive gene promoters; experiment: NFκB responsive gene promoter activity; format: cell-based; conditions: 24 hours, versus untreated cells
[4] = system: experimentally induced fibrosis; experiment: Recovery from carbon tetrachloride induced fibrosis in rats, sulfasalazine; format: in vivo, rat
Procedure: Adult male Sprague Dawley rats were treated twice weekly for six weeks by intraperitoneal injection of the hepatotoxin carbon tetrachloride and then allowed to recover for 24 hours prior to treatment with either vehicle control or sulfasalazine. Animals were then left to recover for either a further 16 or 72 hours.

hepatic stellate cells = experiment: Nerve growth factor induced apoptosis of hepatic stellate cells; format: cell-based; conditions: NGF 100 ng/ml, absolute serum deprivation
Procedure: Apoptosis of hepatic stellate cells was induced by absolute serum deprivation, cycloheximide treatment (Issa et al., Gut (2001) 48: S48-S57), or exposure to nerve growth factor as previously described (Trim et al., Am. J. Pathol., (2000) 156, 1235-1243). Hepatic stellate cells were cultured in 24-well tissue culture plates. Rat and human hepatic stellate cells were exposed to proapoptotic stimuli with and without recombinant TIMP-1 (Biogenesis, Poole, UK) and other manipulations as detailed below. Following a 4 hour incubation at 37° C., nuclear morphology was assessed by adding acridine orange to each well (final concentration 1 μg/ml) and observing the cells under blue fluorescence. The total number of apoptotic bodies was counted, and any apoptotic bodies floating in the supernatant were included by racking up the objective lens. The total number of cells per field was counted, and an apoptotic index was calculated. Each condition was performed in duplicate, and three high power fields were counted for each well. […] To examine for autocrine effects, hepatic stellate cells were incubated for 18 hours with azide-free polyclonal neutralizing antibodies to TIMP-1 and a nonimmune IgG control (Santa Cruz Biotechnology, Inc., Santa Cruz, Calif.), and responses were assessed by acridine orange staining and counting. […]

[5] = system: rat hepatic stellate cells; experiment: Hepatic stellate cell apoptosis by acridine orange staining and counting (cycloheximide or serum deprivation), rat cells; format: cell-based; conditions: rat HSC; protein at 142.5 ng/ml
Procedure: (§2) Human hepatic stellate cells were extracted from the margins of normal human liver resected for colonic metastatic disease as previously described (Iredale et al., Clin. Sci., (1995) 89: 75-81). Rat hepatic stellate cells were extracted from normal rat liver by Pronase and collagenase digestion and purified by centrifugal elutriation as described (Arthur et al., J. Clin. Invest., (1989) 84:1076-1085). Extracted hepatic stellate cells were cultured on plastic until they were activated to a myofibroblastic phenotype after 7 to 10 days. Human and rat hepatic stellate cells were used for experiments after activation in primary culture or before fourth passage. Cells were cultured in Dulbecco's modified Eagle's medium in the presence of 16% fetal calf serum and antibiotics.
Apoptosis of hepatic stellate cells was induced by absolute serum deprivation, cycloheximide treatment (Issa et al., Gut (2001) 48: S48-S57), or exposure to nerve growth factor as previously described (Trim et al., Am. J. Pathol., (2000) 156, 1235-1243). Hepatic stellate cells were cultured in 24-well tissue culture plates. Rat and human hepatic stellate cells were exposed to proapoptotic stimuli with and without recombinant TIMP-1 (Biogenesis, Poole, UK) and other manipulations as detailed below. Following a 4 hour incubation at 37° C., nuclear morphology was assessed by adding acridine orange to each well (final concentration 1 μg/ml) and observing the cells under blue fluorescence. The total number of apoptotic bodies was counted, and any apoptotic bodies floating in the supernatant were included by racking up the objective lens. The total number of cells per field was counted, and an apoptotic index was calculated. Each condition was performed in duplicate, and three high power fields were counted for each well. […] To examine for autocrine effects, hepatic stellate cells were incubated for 18 hours with azide-free polyclonal neutralizing antibodies to TIMP-1 and a nonimmune IgG control (Santa Cruz Biotechnology, Inc., Santa Cruz, Calif.), and responses were assessed by acridine orange staining and counting.
Apoptosis was assessed by acridine orange staining. […] A normal cell lies adjacent to the apoptotic body. This technique was used to determine the percentage of apoptotic hepatic stellate cells following exposure to cyclohexamide in the presence or absence of TIMP-1. Hepatic stellate cells were exposed to 50 μM cyclohexamide and 0, 1, 10, 100 or 200 ng/ml of TIMP-1. Cells treated with serum alone were used as controls. […] Bovine serum albumin, used as a carrier for the TIMP-1 had no antiapoptotic effect.

[6] = system: caspase-3 activity in hepatic stellate cells; experiment: Caspase-3 activity in cycloheximide-treated hepatic stellate cells; format: cell-based; conditions: wild type TIMP-1 or T2G mutant N-TIMP-1
Procedure: Apoptosis was quantified by a colorimetric assay for caspase-3 activity (Promega) according to the manufacturer's instructions.
Caspase-3 is a central caspase in the proapoptotic cascade (Hengartner, Nature (2000) 407, 770-776) and can be used as an alternative assay to assess apoptosis. Hepatic stellate cells were cultured in 50 μM cycloheximide with TIMP-1 at a concentration of 0, 1, 10, or 100 ng/ml. Controls where cells were incubated with either the caspase 3 inhibitor benzyloxycarbonyl-Val-Ala-Asp-fluoromethylketone or serum alone were also performed. Data are expressed as mean ±S.E. and are presented as percentage of control given the arbitrary value of 100%. * indicates p<0.001; n=3. […] Although the mean caspase-3 activity of the cells treated with 10 ng/ml TIMP-1 was slightly lower than that treated with 100 ng/ml of TIMP-1, this was not statistically significant (p=0.67 by Student's t test).

MMP-3 = MMP-3 (Homo sapiens, UniProt P08254); conditions: T2G versus wild type; cited from earlier work
[7] = system: human hepatic stellate cells; experiment: Hepatic stellate cell apoptosis by acridine orange staining and counting (cycloheximide or serum deprivation), human cells; format: cell-based; conditions: human HSC; protein at 142.5 ng/ml
Procedure: as §2
Apoptosis of hepatic stellate cells was induced by absolute serum deprivation, cycloheximide treatment (Issa et al., Gut (2001) 48: S48-S57), or exposure to nerve growth factor as previously described (Trim et al., Am. J. Pathol., (2000) 156, 1235-1243). Hepatic stellate cells were cultured in 24-well tissue culture plates. […] Following a 4 hour incubation at 37° C., nuclear morphology was assessed by adding acridine orange to each well (final concentration 1 μg/ml) and observing the cells under blue fluorescence. The total number of apoptotic bodies was counted, and any apoptotic bodies floating in the supernatant were included by racking up the objective lens. The total number of cells per field was counted, and an apoptotic index was calculated. Each condition was performed in duplicate, and three high power fields were counted for each well. […] To examine for autocrine effects, hepatic stellate cells were incubated for 18 hours with azide-free polyclonal neutralizing antibodies to TIMP-1 and a nonimmune IgG control (Santa Cruz Biotechnology, Inc., Santa Cruz, Calif.), and responses were assessed by acridine orange staining and counting.
Apoptosis was assessed by acridine orange staining. […]

[8] = system: rat hepatic stellate cells; experiment: Morphology and detachment of culture-activated rat hepatic stellate cells (light microscopy); format: cell-based
Source text: (§3) Rat hepatic stellate cells (HSCs) were isolated by pronase/collagenase perfusion and purified by isopycnic density centrifugation in Opti-prep™ (Nycomed, Amersham, England) and elutriation essentially as previously described (Bahr et al., Hepatology (1999) 29:839-848). Human hepatic stellate cells were isolated from discarded resected liver via a similar protocol (Trim et al., J. Biol. Chem., (2000) 275:6657-6663). The use of human liver tissue for scientific investigation was approved by the UK South and West Local Research Ethics Committee and was subject to patient consent.
(§4) It has been shown recently that liver myofibroblasts may contribute to liver fibrogenesis and that liver myofibroblasts may have the potential to contaminate passaged hepatic stellate cell cultures (Knittel et al., Gastronenterology, (1999) 117:1205-1221). In this study, only primary cultures of hepatic stellate cells were used, which were desmin and glial fibrillary acid protein positive (markers shown to be expressed in hepatic stellate cells, but not liver myofibroblasts—Knittel et al., supra).
Cells were treated with gliotoxin dissolved in DMSO vehicle (added to medium from a 2000-fold molar concentrated stock). Control cells received DMSO vehicle only (i.e., 0.05% vol/vol). All other additions to culture medium were made from concentrated stocks dissolved in DMSO or by direct addition to culture medium. Protein contents of wells were determined using the Lowry assay (Lowry et al., J. Biol. Chem., (1951)193: 265-275).
Culture activated rat (14 day) and human (24 day) hepatic stellate cells were treated with DMSO solvent control or 1.5 μMol/L gliotoxin. […] Hepatic stellate cells changed from a flattened fibroblastic phenotype with distinct cell-cell interfaces to a substratum detached, rounded, and blebbed morphology.

[9] = system: human hepatic stellate cells; experiment: Morphology of culture-activated human hepatic stellate cells (light microscopy); format: cell-based
Source text: as §3, §4
Cells were treated with gliotoxin dissolved in DMSO vehicle (added to medium from a 2000-fold molar concentrated stock). Control cells received DMSO vehicle only (i.e., 0.05% vol/vol). […] Protein contents of wells were determined using the Lowry assay (Lowry et al., J. Biol. Chem., (1951)193: 265-275). […]

[10] = system: rat hepatic stellate cells; experiment: Low molecular weight DNA fragmentation (nucleosomal ladder) in rat hepatic stellate cells; format: cell-based
Procedure: Hepatic stellate cells cultured in 35-mm diameter dishes (Greiner) were harvested, pelleted by centrifugation and DNA fragmentation determined as outlined elsewhere (Elsharkawy et al., Hepatology (1999) 30:761-769). Propidium Iodide Flow-Activated Cell Sorting Analysis Detached cells were pelleted by centrifugation, washed in PBS, and resuspended in HYPO buffer (0.1% wt/vol) Na3Citrate and 0.1% (wt/vol) Triton™ X-100 containing […] propidium iodide and incubated for 1 hour. The cells were then analyzed by fluorescence-activated cell sorter (FACS) with a Becton Dickinson (San Jose, Calif.) FACScan instrument using a 488 nm excitation wavelength with a band pass filter set at 530 nm. Attached cells were scraped in HYPO buffer after washing cells with PBS.
The effect of gliotoxin on the cleavage of DNA to a nucleosomal ladder was examined because this phenomenon is characteristic of apoptosis. Culture activated (14-day) rat hepatic stellate cells in six well plates were treated with either 0.05% (vol/vol) DMSO for four hours or 1.5 μmol/L gliotoxin for zero hours, half an hour, one hour, two hours or four hours. At each time point, both detached and attached cells were harvested together and low molecular weight DNA (20,000 g supernatant) fragmentation determined as outlined in the materials and methods section. At least three separate experiments were performed. 1 kilobase DNA ladder (Promega) was used as a molecular weight marker.
The effect of various compounds on DNA laddering was then determined. Culture-activated (14-day) rat hepatic stellate cells in six-well plates were treated with:
After fours hours of treatment, DNA fragmentation was determined.
Culture activated (14 day) rat hepatic stellate cells in six well plates were treated with: • (a) 0.05% (vol/vol) DMSO; • (b) 1.5 μmol/L gliotoxin; • (c) 1.5 μmol/L gliotoxin with 100 μmol/L tamoxifen; • (d) 1.5 μmol/L gliotoxin with […] actinomycin d; • (e) 1.5 μmol/L gliotoxin with 10 μmol/L cycloheximide; • (f) 1.5 μmol/L gliotoxin with 10 μmol/L cyclosporin; • (g) 1.5 μmol/L gliotoxin with […] m-iodobenzylguanidine; • (h) 1.5 μmol/L gliotoxin with 50 μmol/L quin-2-am; • (i) 50 μmol/L guin-2-am alone; • (j) 250 μmol/L m-iodobenzylguanidine; • (k) 10 μmol/L cyclosporin; • (l) 10 μmol/L cycloheximide; • (m) 1 μg/ml actinomycin d; or • (n) 100 μmol/L tamoxifen.
After four hours of treatment, DNA fragmentation was determined as outlined in Materials and Methods.

MMP-3, sequence (P08254 100-477, species assumed): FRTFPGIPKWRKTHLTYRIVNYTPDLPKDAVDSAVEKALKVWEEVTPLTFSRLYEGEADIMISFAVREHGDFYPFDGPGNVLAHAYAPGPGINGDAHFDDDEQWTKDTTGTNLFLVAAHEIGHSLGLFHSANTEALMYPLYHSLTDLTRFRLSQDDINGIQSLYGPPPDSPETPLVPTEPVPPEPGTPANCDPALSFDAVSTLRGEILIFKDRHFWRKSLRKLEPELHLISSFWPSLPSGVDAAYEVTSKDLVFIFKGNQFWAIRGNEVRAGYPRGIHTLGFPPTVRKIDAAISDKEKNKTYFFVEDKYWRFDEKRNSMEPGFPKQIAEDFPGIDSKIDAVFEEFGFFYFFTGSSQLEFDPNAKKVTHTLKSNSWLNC

## O=C(O)c1cc(/N=N/c2ccc(S(=O)(=O)Nc3ccccn3)cc2)ccc1O [Sulfasalazine]
Caspase 3 activity
  caspase 3 activity: increased caspase 3 activity in a dose-dependent manner
[1]; 0.5 mM
  apoptosis by Acridine Orange staining: 30%
[1]; 1 mM
  apoptosis by Acridine Orange staining: 45%
[1]; 2 mM
  apoptosis by Acridine Orange staining: 55%
[2]
  NFκB DNA binding activity: dose dependently inhibited NFκB DNA binding activity
[3]
  activity of NFκB responsive gene promoters (PGJ21 (4xNFκB), IL6 and IκBα): repressed the activity of three NFκB responsive gene promoters
  activity of control 7×AP1 promoter: but not a control 7×AP1 promoter
[4]; six weeks CCl4, 16 hours recovery
  collagen deposition (fibrosis) versus control livers: no significant difference in collagen deposition
[4]; six weeks CCl4, 72 hours recovery
  collagen versus control livers: significantly less collagen
[4]; six weeks CCl4, 72 hours recovery, control livers 3
  fibrosis score (1-4; 1 no fibrosis, 4 cirrhosis): 1.5
[4]; six weeks CCl4, treatment 24 hours later, 16 hours recovery
  numbers of activated hepatic stellate cells versus control livers: large reduction in numbers of activated hepatic stellate cells

## NGF: nerve growth factor, ligand of p75 on hepatic stellate cells
Hepatic stellate cells
  apoptosis in hepatic stellate cells versus BSA carrier alone: induced significantly more apoptosis

## T2G mutant N-TIMP-1: mutated nonfunctional TIMP-1, threonine to glycine at amino acid position 2, no MMP inhibitory activity
[5]
  apoptosis induced by cycloheximide (acridine orange): had no inhibitory effect
[6]
  caspase-3 activity in cycloheximide-treated hepatic stellate cells: no effect was observed
MMP-3
  factor by which the mutation changes the inhibition constant of TIMP-1 for MMP-3: over 1000
[7]
  apoptosis induced by cycloheximide (acridine orange): had no inhibitory effect

## S=C(S)N1CCCC1 [pyrrolidine dithiocarbamate]
[8]; rat HSC, with 1.5 μmol/L gliotoxin, Z-VAD-FMK 100 μmol/L, PDTC 300 μmol/L, tamoxifen 100 μmol/L, m-IBG 250 (mmol/L in the source), quin-2-am 50 μmol/L
  effect on morphologic alterations / detachment caused by gliotoxin: blocked the morphologic effects of gliotoxin
[9]; human HSC, cotreatment with gliotoxin
  effect on morphologic effects of gliotoxin: blocked the morphologic effects of gliotoxin
[10]; with 1.5 μmol/L gliotoxin, four hours, PDTC 300 μmol/L, tamoxifen 100 μmol/L, m-IBG 250 (mmol/L in the source), cyclosporin 10 μmol/L, quin-2-am 50 μmol/L
  effect on gliotoxin-induced cleavage of DNA to a nucleosomal ladder: blocks the cleavage of DNA to a nucleosomal ladder

## CS[C@]1(CO)C(=O)N2[C@H]3C(=CC=C[C@@H]3O)C[C@@]2(SC)C(=O)N1C [mt-glio, bis-dethio-bis(methylthio)-gliotoxin]
[8]; culture activated (14 day) rat HSC, 1.5 μmol/L
  morphologic alterations: had no effect on the morphology
[9]; culture activated (24 day) human HSC, 1.5 μmol/L
  morphologic alterations: had no effect on the morphology
[10]; rat HSC, 1.5 μmol/L, up to four hours
  cleavage of DNA to a nucleosomal ladder: did not result in the cleavage of DNA to a nucleosomal ladder
